Experimental data published in ChEMBL document CHEMBL3588841, “Synthesis and cancer cell growth inhibitory activity of icaritin derivatives” (Eur J Med Chem, 2015).
pIC50: −log10 of the molar value.

Legend:
MCF7 [1] = test: Cytotoxicity against human MCF7 cells assessed as cell viability by MTT assay; type: functional, cell-based
[2] = Cytotoxicity against human MDA-MB-435S cells assessed as cell viability by MTT assay; type: functional, cell-based
A549 [3] = test: Cytotoxicity against human A549 cells assessed as cell viability by MTT assay; type: functional, cell-based
Vero = test: Cytotoxicity against African green monkey Vero cells assessed as cell viability by MTT assay; type: cell-based; conditions: Chlorocebus sabaeus
[4] = Chemical stability of the compound in phosphate buffered saline assessed as decomposition at pH 7; type: physicochemical; conditions: read-out: Drug degradation
A549 [5] = test: Ratio of tamoxifen to compound for human A549 cells assessed as cell viability by MTT assay; type: functional
[6] = Ratio of icaritin to compound for human MDA-MB-435S cells assessed as cell viability by MTT assay; type: functional
MCF7 [7] = test: Ratio of icaritin to compound for human MCF7 cells assessed as cell viability by MTT assay; type: functional
MCF7 [8] = test: Ratio of tamoxifen to compound for human MCF7 cells assessed as cell viability by MTT assay; type: functional
[9] = Ratio of tamoxifen to compound for human MDA-MB-435S cells assessed as cell viability by MTT assay; type: functional
A549 [10] = test: Ratio of icaritin to compound for human A549 cells assessed as cell viability by MTT assay; type: functional

SMILES | pIC50 (MCF7 [1]) | pIC50 ([2]; Homo sapiens, MDA-MB-435S) | pIC50 (A549 [3]) | pIC50 (Vero) | further results
CCOC(=O)/C=C/COc1cc(O)c2c(=O)c(OC/C=C/C(=O)OCC)c(-c3ccc(OC)cc3)oc2c1CC=C(C)C | < 4.00 | < 4.00 | < 4.00 | – | –
CCOC(=O)C(Oc1c(-c2ccc(OC)cc2)oc2c(CC=C(C)C)c(O)cc(O)c2c1=O)C(=O)OCC | 4.76 | 5.36 | 4.71 | 5.36 | –
CCOC(=O)/C=C/COc1cc(O)c2c(=O)c(O)c(-c3ccc(OC)cc3)oc2c1CC=C(C)C | < 4.00 | < 4.00 | < 4.00 | – | –
COc1ccc(-c2oc3c(CC=C(C)C)c(OC(C)C(=O)O)cc(O)c3c(=O)c2O)cc1 (racemic) | < 4.00 | 5.24 | 4.82 | 4.71 | –
COc1ccc(-c2oc3c(CC=C(C)C)c(O)cc(O)c3c(=O)c2OCC(=O)O)cc1 | 4.08 | 4.75 | 4.36 | – | –
COc1ccc(-c2oc3c(CC=C(C)C)c(OCC(=O)O)cc(O)c3c(=O)c2O)cc1 | < 4.00 | 4.87 | 4.78 | – | –
CCOC(=O)C(C)Oc1c(-c2ccc(OC)cc2)oc2c(CC=C(C)C)c(O)cc(O)c2c1=O (racemic) | 5.33 | 5.39 | 5.34 | 5.19 | degraded [4]: 7%
CCOC(=O)CCCOc1cc(O)c2c(=O)c(OCCCC(=O)OCC)c(-c3ccc(OC)cc3)oc2c1CC=C(C)C | < 4.00 | < 4.00 | < 4.00 | – | –
COc1ccc(-c2oc3c(CC=C(C)C)c(O)cc(O)c3c(=O)c2O)cc1 [ICARITIN] | 5.15 | 4.60 | < 4.00 | 4.67 | –
COc1ccc(-c2oc3c(CC=C(C)C)c(OC(C)C(=O)O)cc(O)c3c(=O)c2OC(C)C(=O)O)cc1 (stereo in doubt; 3c) | < 4.00 | – | < 4.00 | – | pIC50 ([2]; mda-mb-435s): < 4.00
CCOC(=O)COc1cc(O)c2c(=O)c(OCC(=O)OCC)c(-c3ccc(OC)cc3)oc2c1CC=C(C)C | < 4.00 | < 4.00 | < 4.00 | – | –
CCOC(=O)COc1c(-c2ccc(OC)cc2)oc2c(CC=C(C)C)c(O)cc(O)c2c1=O | < 4.00 | 4.52 | 4.19 | – | –
COc1ccc(-c2oc3c(CC=C(C)C)c(OCCCOC(=O)CCCC(=O)O)cc(O)c3c(=O)c2OCCCOC(=O)CCCC(=O)O)cc1 | 5.66 | 5.09 | 4.84 | 5.20 | degraded [4]: 7%
CCOC(=O)CCCOc1cc(O)c2c(=O)c(O)c(-c3ccc(OC)cc3)oc2c1CC=C(C)C | < 4.00 | < 4.00 | < 4.00 | – | –
COc1ccc(-c2oc3c(CC=C(C)C)c(OC/C=C/C(=O)O)cc(O)c3c(=O)c2OC/C=C/C(=O)O)cc1 | < 4.00 | 4.24 | < 4.00 | – | –
CCOC(=O)C(C)Oc1cc(O)c2c(=O)c(O)c(-c3ccc(OC)cc3)oc2c1CC=C(C)C (racemic) | < 4.00 | 5.60 | 4.58 | 5.85 | degraded [4]: 25%
COc1ccc(-c2oc3c(CC=C(C)C)c(OCCCC(=O)O)cc(O)c3c(=O)c2O)cc1 | < 4.00 | 4.90 | 4.72 | – | –
CCOC(=O)CCCOc1c(-c2ccc(OC)cc2)oc2c(CC=C(C)C)c(O)cc(O)c2c1=O | 5.52 | 5.06 | 4.96 | 5.24 | –
CC/C(=C(\c1ccccc1)c1ccc(OCCN(C)C)cc1)c1ccccc1 [TAMOXIFEN] | 5.42 | 5.26 | 5.08 | 5.24 | –

SMILES | pIC50 (MCF7 [1]) | pIC50 ([2]; Homo sapiens, MDA-MB-435S) | pIC50 (A549 [3]) | pIC50 (Vero) | further results
COc1ccc(-c2oc3c(CC=C(C)C)c(OCC(=O)O)cc(O)c3c(=O)c2OCC(=O)O)cc1 | < 4.00 | < 4.00 | < 4.00 | – | –
COc1ccc(-c2oc3c(CC=C(C)C)c(O)cc(O)c3c(=O)c2OC(C)C(=O)O)cc1 (racemic) | < 4.00 | 5.12 | 4.39 | 4.44 | –
COc1ccc(-c2oc3c(CC=C(C)C)c(OCCCOC(=O)CCC(=O)O)cc(O)c3c(=O)c2OCCCOC(=O)CCC(=O)O)cc1 | < 4.00 | 5.19 | 4.74 | 4.84 | –
COc1ccc(-c2oc3c(CC=C(C)C)c(O)cc(O)c3c(=O)c2OC(C(=O)O)C(=O)O)cc1 | < 4.00 | < 4.00 | < 4.00 | – | –
COc1ccc(-c2oc3c(CC=C(C)C)c(OCCO)cc(O)c3c(=O)c2OCCO)cc1 | < 4.00 | < 4.00 | < 4.00 | – | –
COc1ccc(-c2oc3c(CC=C(C)C)c(OC(C(=O)O)C(=O)O)cc(O)c3c(=O)c2OC(C(=O)O)C(=O)O)cc1 | < 4.00 | 4.10 | < 4.00 | – | –
CCOC(=O)/C=C/COc1c(-c2ccc(OC)cc2)oc2c(CC=C(C)C)c(O)cc(O)c2c1=O | 4.99 | 5.66 | 5.33 | 5.51 | Ratio (A549 [5]): 2.5; Ratio [6]: 2.5; Ratio (MCF7 [7]): 2.5; Ratio (MCF7 [8]): 2.5; Ratio [9]: 2.5; Ratio (A549 [10]): 2.5
COc1ccc(-c2oc3c(CC=C(C)C)c(OCCCC(=O)O)cc(O)c3c(=O)c2OCCCC(=O)O)cc1 | < 4.00 | 4.51 | 4.59 | – | –
COc1ccc(-c2oc3c(CC=C(C)C)c(OCCCO)cc(O)c3c(=O)c2OCCCO)cc1 | < 4.00 | 4.66 | < 4.00 | – | –
COc1ccc(-c2oc3c(CC=C(C)C)c(OCCOC(=O)CCCC(=O)O)cc(O)c3c(=O)c2OCCOC(=O)CCCC(=O)O)cc1 | 5.52 | 5.20 | 5.21 | < 4.00 | degraded [4]: 7%
CCOC(=O)C(Oc1cc(O)c2c(=O)c(OC(C(=O)OCC)C(=O)OCC)c(-c3ccc(OC)cc3)oc2c1CC=C(C)C)C(=O)OCC | < 4.00 | 4.07 | < 4.00 | – | –
COc1ccc(-c2oc3c(CC=C(C)C)c(OC/C=C/C(=O)O)cc(O)c3c(=O)c2O)cc1 | < 4.00 | 4.95 | 4.64 | – | –
COc1ccc(-c2oc3c(CC=C(C)C)c(OC(C)C(=O)O)cc(O)c3c(=O)c2OC(C)C(=O)O)cc1 (stereo in doubt; 3b) | – | – | – | – | pIC50 ([2]; mda-mb-435s): 4.57
COc1ccc(-c2oc3c(CC=C(C)C)c(O)cc(O)c3c(=O)c2OCCCC(=O)O)cc1 | < 4.00 | 5.00 | 4.62 | 4.25 | –
CCOC(=O)C(C)Oc1cc(O)c2c(=O)c(OC(C)C(=O)OCC)c(-c3ccc(OC)cc3)oc2c1CC=C(C)C (single isomer, unassigned; diastereomer 2) | < 4.00 | < 4.00 | < 4.00 | – | –
COc1ccc(-c2oc3c(CC=C(C)C)c(OCCOC(=O)CCC(=O)O)cc(O)c3c(=O)c2OCCOC(=O)CCC(=O)O)cc1 | < 4.00 | 4.22 | < 4.00 | – | –
CCOC(=O)COc1cc(O)c2c(=O)c(O)c(-c3ccc(OC)cc3)oc2c1CC=C(C)C | 4.55 | 5.28 | 4.38 | 5.85 | –
COc1ccc(-c2oc3c(CC=C(C)C)c(O)cc(O)c3c(=O)c2OC/C=C/C(=O)O)cc1 | 4.31 | 5.08 | 4.97 | 5.15 | –
